SMILES strings stand for the structures. “And” between values parts separate entries of the source, which are not always exact repeats. Identical values can stand only once.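 Method: 48-hour compound exposure of cells in 96-well plates, five concentrations, linear interpolation of endpoints. GI50 is the concentration that inhibits growth by half. TGI: total growth inhibition.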

The test has as its system MDA-MB-468 breast. Briefly: NCI-60 cell line screen, 48 h.
Consider `CCCCCCCCCCCCCC(=S)NCCCC[C@H](NC(=O)OCc1ccccc1)C(=O)Nc1ccccc1`, for which the GI50 is 2690 nM and the TGI is above 100000 nM.
The like results for `COc1ccccc1NC1=C(Cl)C(=O)c2nc(C)ccc2C1=O` were, in that order, 1520 nM and 3060 nM.
For the compound `O=C(CSc1nc2ccc([N+](=O)[O-])cc2[nH]1)Nc1ccc(F)c(Cl)c1`, the GI50 is 1170 nM and the TGI stood at 5070 nM.
The matching figures for `Oc1ccccc1/C=N/Nc1ccc2ccccc2n1`: 2600 nM and 14800 nM.
The matching figures for `C#Cc1nc(C(=O)NCCC(=O)Nc2ccc(NC(=O)c3ccc(/C=C/C(=O)c4nccn4C)cc3)cc2)cs1`: 891 nM and 2170 nM.
The matching figures for `CCC(C)C1NC(=O)c2nc(oc2-c2ccccc2)-c2csc(n2)-c2csc(n2)-c2nc(oc2C)-c2coc(n2)CNC(=O)C(C(C)CC)NC1=O` (configuration not stated): 30 nM and 101 nM.
`CC1(C)N=C(N)N=C(N)N1c1ccc(CCCCc2ccc(S(=O)(=O)F)cc2)cc1`: the GI50 is 539 nM and the TGI is 9330 nM.
The matching figures for `COc1ccc(-c2nn(-c3cccc(Cl)c3)cc2C2CC(c3ccccc3)=NN2C(C)=O)cc1` (configuration not stated): 16300 nM and above 100000 nM.
The matching figures for `Cc1[nH]c(/C=C2\C(=O)Nc3ccc(S(=O)(=O)Cc4c(Cl)cccc4Cl)cc32)c(C)c1C(=O)N1CCC[C@@H]1CN1CCCC1`: 1520 nM and 2940 nM.
The matching figures for `COc1cc(/C=C\[N+](=O)[O-])ccc1O`: 1690 nM and 3500 nM.
`COc1cccc(/C=C/C(=O)c2cc3c(N)c(C(=O)Nc4ccccc4C)sc3nc2C)c1`: the GI50 is 887 nM and the TGI came out at 2040 nM.
As for `Fc1cccc(COc2ccc(Nc3ncncc3C#Cc3ccccc3)cc2Cl)c1`, the GI50 is 8770 nM and the TGI is above 25000 nM.
Take `COC(=O)C(=O)CC(=O)CCn1ncc(Cl)c(Cl)c1=O`: the GI50 is 7010 nM and the TGI came to 22500 nM.
The like results for `CCn1c(SCC(=O)Nc2cccc(C(=O)/C=C/c3cc(OC)c(OC)c(OC)c3)c2)nc2ccccc2c1=O` were, in that order, 4220 nM and 40200 nM.
The like results for `COc1c(C2CC(=O)Nc3c2cnn3Cc2ccco2)cc2c(c1OC)OCO2` (configuration not stated) were, in that order, 318 nM and above 100000 nM.
The like results for `CC(C)(C)c1cc(O)c(O)c(C(C)(C)C)c1` were, in that order, 2140 nM and 4770 nM.
Regarding `O=C(Nc1cccc(-n2ccc3c(NC(=O)c4ccccc4)nccc32)c1)c1cccc(C(F)(F)F)c1`, the GI50 is 29.5 nM and the TGI worked out at 1540 nM.
With `Cc1nn(-c2ccc(F)cc2)c2ncnc(Nc3ccc(NC(=O)Nc4ccc(Cl)c(C(F)(F)F)c4)cc3)c12`, the GI50 was 1800 nM and the TGI was 4540 nM.
The like results for `O=C(Nc1nc2ccccc2s1)OCC(F)(F)F` were, in that order, above 100000 nM and above 100000 nM.
Regarding `COc1ccc(C(=O)Nc2ncc(Cc3ccc(Cl)cc3)s2)cc1`, the GI50 was 37.8 nM and the TGI was 17500 nM.
The matching figures for `NC(N)=N/N=C(/c1ccccc1)c1ccc(F)cc1`: 220 nM and 2460 nM.
`O=c1cc(-c2cccc(F)c2)[nH]c2cc3c(cc12)OCO3`: the GI50 was 10800 nM and the TGI was 45200 nM.
The matching figures for `C[C@@H]1CC[C@@H]2[C@@H]1[C@H](OC(=O)/C=C/c1ccccc1)[C@]1(c3ccccc3)C[C@@H](OC(=O)CO)[C@@]2(C)O1`: 13600 nM and 29000 nM.
For `O=C(NNc1nc2c(F)cccc2n2cccc12)c1cnccn1`, the GI50 was 535 nM and the TGI stood at 2170 nM.
The matching figures for `COC1(C(=O)N2Cc3nc(Cl)nc(N[C@H](C)c4cc(N)cc(C(F)(F)F)c4)c3C2)CCOCC1`: 4440 nM and 40100 nM.
The matching figures for `CCn1c(-c2nonc2N)nc2c(C#CCN)ncc(OCCCN)c21`: above 25000 nM and above 25000 nM.
Regarding `CNC(=O)c1ccccc1CC1(O)c2ccccc2Oc2ccccc21`, the GI50 is 3550 nM and the TGI was 20500 nM.
Consider `COc1cc2c3c(cccc3c1)C(=O)N(CCN1CCCC1)C2=O`, for which the GI50 was 1320 nM and the TGI stood at 3700 nM.
In the case of `COc1ccc(C(=S)N2CCN(c3cccc(Cl)c3)CC2)cc1`, the GI50 was 32300 nM and the TGI was above 100000 nM.
The matching figures for `Cc1ccn2c3c(c(C(=O)O)c2c1)C(=O)c1ccccc1C3=O`: 17300 nM and above 100000 nM.
The matching figures for `CCN1CCN(c2nc(NCCCNc3ccnc4cc(Cl)ccc34)c3ccccc3n2)CC1`: 1620 nM and 3610 nM.
For the compound `Cc1cc([C@@H](C)Nc2ccccc2C(=O)O)c2nc(N3CCOCC3)cc(=O)n2c1`, the GI50 was 2210 nM and the TGI is above 10000 nM.
`CN1CCN(Cc2ccc(C(=O)Nc3cncc(C#Cc4cnc(N)c5ccccc45)c3)cc2C(F)(F)F)CC1`: the GI50 is 1770 nM and the TGI amounted to 3650 nM.
Consider `CN(C)CC(=O)N1CCC(c2ccc(NC(=O)c3ncc(C#N)[nH]3)c(C3=CCCCC3)c2)CC1`, for which the GI50 was 4860 nM and the TGI worked out at 18500 nM.
The like results for `Cc1cc2nc3c4cc(Cl)ccc4n(CCN(C)C)c3nc2cc1C` were, in that order, 1410 nM and 3580 nM.
Take `Clc1ccccc1C(c1ccccc1)(c1ccccc1)n1ccnc1`: the GI50 is 1770 nM and the TGI was determined as 6210 nM.
For `N#CC(=C1SCS1)[N+](=O)[O-]`, the GI50 is 249 nM and the TGI was 846 nM.
For the compound `CC(=O)Nc1cccc(-n2c(=O)n(C3CC3)c(=O)c3c(Nc4ccc(I)cc4F)n(C)c(=O)c(C)c32)c1`, the GI50 was 2820 nM and > 10000 nM; the TGI is 23600 nM and > 10000 nM.
On to `Cc1ccc2c(C(C[N+](=O)[O-])c3cccs3)c(-c3ccccc3)[nH]c2c1` (configuration not stated), for which the GI50 was 820 nM and the TGI stood at 3020 nM.
As for `Brc1cccc(-c2cc(-c3ccc4c(c3)OCCO4)[nH]n2)c1`, the GI50 was 5600 nM and the TGI stood at 33500 nM.
The like results for `C=C1C(=O)O[C@H]2[C@H]1CC/C(CNC(=O)c1c[nH]c3ccc(F)cc13)=C\CC[C@@]1(C)O[C@@H]21` were, in that order, 658 nM and 2060 nM.
The like results for `C=CC(=O)N[C@H]1C=C(C)c2c(-c3cnc4ccccc4c3)c3c(N)ncnc3n2C1` were, in that order, 26.5 nM and 485 nM.
The like results for `CN1CCN(CC#Cc2cccc(C(=O)c3cnn(-c4ccc(F)cc4)c3N)c2)CC1` were, in that order, above 25000 nM and above 25000 nM.
Regarding `COc1cc2ncn(-c3cc(OCc4ccccc4Cl)c(C(N)=O)s3)c2cc1OC`, the GI50 is 49.9 nM and the TGI amounted to 429 nM.
`CN=C(N)N/N=C(\c1ccccc1)c1ccc(Br)cc1`: the GI50 is 275 nM and the TGI worked out at 1080 nM.
For the compound `Nc1n[nH]c2ccc([C@@H]3Nc4ccc5[nH]ncc5c4[C@H]4[C@H]5CCC(C5)[C@H]43)cc12`, the GI50 is 249 nM and the TGI worked out at 1420 nM.
